# How the values were obtained:
# Assay type in all cases: in vivo
# Settings in all cases: 250 g/h, evaluated after 13 days
# [1] = tested on: Alopecurus myosuroides (ALOMY); assay: Pre-emergence herbicidal glasshouse test, percentage damage
# Procedure, shortened: (§1)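 Pot-grown grass weeds in standard soil were sprayed 1 day after sowing (pre-emergence) or after 8 days (post-emergence) with compound at 250 g/h in acetone/water (50:50) with 0.5% Tween 20. Glasshouse conditions were 24/16 °C day/night, 14 h light, 65% humidity. Damage was scored after 13 days on a five-point scale.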
# Avena fatua (AVEFA) [2] = assay: as above
# Procedure, shortened: as §1
# [3] = tested on: Echinochloa crus-galli (ECHCG); assay: as above
# Procedure, shortened: as §1
# Lolium perenne (LOLPE) [4] = assay: as above
# Procedure, shortened: as §1
# Setaria faberi (SETFA) [5] = assay: as above
# Procedure, shortened: as §1
# Setaria faberi (SETFA) [6] = assay: Post-emergence herbicidal glasshouse test, percentage damage
# Procedure, shortened: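 Wheat, barley and Setaria faberi were sprayed post-emergence after 8 days' growth (24/16 °C, 14 h light, 65% humidity) with compound in acetone/water (50:50) containing 0.5% Tween 20, at the indicated rates. On wheat, compounds were also applied with cloquintocet-mexyl at 50 g/ha. Damage was scored after 13 days on a five-point scale (5=80-100% to 1=0-19%).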
# [7] = tested on: Alopecurus myosuroides (ALOMY); assay: as above
# Procedure, shortened: as §1
# Avena fatua (AVEFA) [8] = assay: as above
# Procedure, shortened: as §1
# [9] = tested on: Echinochloa crus-galli (ECHCG); assay: as above
# Procedure, shortened: as §1
# Lolium perenne (LOLPE) [10] = assay: as above
# Procedure, shortened: as §1
SMILES,ALOMY PRE percentage damage (five point scale) [1],AVEFA PRE percentage damage (five point scale) (Avena fatua (AVEFA) [2]),ECHCG PRE percentage damage (five point scale) [3],LOLPE PRE percentage damage (five point scale) (Lolium perenne (LOLPE) [4]),SETFA PRE percentage damage (five point scale) (Setaria faberi (SETFA) [5]),SETFA POST percentage damage (five point scale) (Setaria faberi (SETFA) [6]),ALOMY POST percentage damage (five point scale) [7],AVEFA POST percentage damage (five point scale) (Avena fatua (AVEFA) [8]),ECHCG POST percentage damage (five point scale) [9],LOLPE POST percentage damage (five point scale) (Lolium perenne (LOLPE) [10])
CC#Cc1cc(C)c(C2C(=O)CC3(CCN(C(=O)Cc4ncccn4)CC3)CC2=O)c(C)c1 [Compound A102],2 (2=20-39%),5 (5=80-100%),5 (5=80-100%),5 (5=80-100%),5 (5=80-100%),5 (5=80-100%),5 (5=80-100%),5 (5=80-100%),5 (5=80-100%),5 (5=80-100%)
CC#Cc1cc(C)c(C2=C(OC(C)=O)CC3(CCN(C(=O)NC(C)=O)CC3)CC2=O)c(C)c1 [Compound P12],4 (4=60-79%),4 (4=60-79%),5 (5=80-100%),5 (5=80-100%),5 (5=80-100%),5 (5=80-100%),5 (5=80-100%),5 (5=80-100%),5 (5=80-100%),5 (5=80-100%)
CC#Cc1cc(C)c(C2=C(OC(=O)OC)CC3(CCN(C(=O)COCCOC)CC3)CC2=O)c(C)c1 [Compound P50],3 (3=40-59%),2 (2=20-39%),5 (5=80-100%),4 (4=60-79%),5 (5=80-100%),5 (5=80-100%),4 (4=60-79%),5 (5=80-100%),5 (5=80-100%),5 (5=80-100%)
CC#Cc1cc(C)c(C2C(=O)CC3(CCN(C(=O)COCCCl)CC3)CC2=O)c(C)c1 [Compound A200],5 (5=80-100%),4 (4=60-79%),5 (5=80-100%),5 (5=80-100%),5 (5=80-100%),5 (5=80-100%),5 (5=80-100%),5 (5=80-100%),5 (5=80-100%),5 (5=80-100%)
CC#Cc1cc(C)c(C2C(=O)CC3(CCN(C(=O)CCOCC)CC3)CC2=O)c(C)c1 [Compound A172],5 (5=80-100%),5 (5=80-100%),5 (5=80-100%),5 (5=80-100%),5 (5=80-100%),5 (5=80-100%),5 (5=80-100%),5 (5=80-100%),5 (5=80-100%),5 (5=80-100%)
CC#Cc1cc(C)c(C2C(=O)CC3(CCN(C(=O)NC(C)(C)C)CC3)CC2=O)c(OC)c1 [Compound A76],5 (5=80-100%),5 (5=80-100%),5 (5=80-100%),5 (5=80-100%),5 (5=80-100%),5 (5=80-100%),5 (5=80-100%),5 (5=80-100%),5 (5=80-100%),5 (5=80-100%)
CC#Cc1cc(C)c(C2C(=O)CC3(CCN(C(=O)N(C)OC)CC3)CC2=O)c(C)c1 [Compound A9],5 (5=80-100%),5 (5=80-100%),5 (5=80-100%),5 (5=80-100%),5 (5=80-100%),5 (5=80-100%),5 (5=80-100%),5 (5=80-100%),5 (5=80-100%),5 (5=80-100%)
CC#Cc1cc(C)c(C2=C(OC(=O)OC)CC3(CCN(C(=O)c4ccccn4)CC3)CC2=O)c(C)c1 [Compound P24],5 (5=80-100%),5 (5=80-100%),5 (5=80-100%),5 (5=80-100%),5 (5=80-100%),5 (5=80-100%),5 (5=80-100%),5 (5=80-100%),5 (5=80-100%),5 (5=80-100%)
CC#Cc1cc(C)c(C2C(=O)CC3(CCN(C(=O)COC(F)(F)F)CC3)CC2=O)c(C)c1 [Compound A199],5 (5=80-100%),5 (5=80-100%),5 (5=80-100%),5 (5=80-100%),5 (5=80-100%),5 (5=80-100%),5 (5=80-100%),5 (5=80-100%),5 (5=80-100%),5 (5=80-100%)
"CC#Cc1cc(C)c(C2C(=O)CC3(CCN(C(=O)COC(F)F)CC3)CC2=O)c(C)c1 [Compound A197, 3-[2-(difluoromethoxy)acetyl]-9-(2,6-dimethyl-4-prop-1-ynyl-phenyl)-3-azaspiro[5.5]undecane-8,10-dione]",5 (5=80-100%),5 (5=80-100%),5 (5=80-100%),5 (5=80-100%),5 (5=80-100%),5 (5=80-100%),5 (5=80-100%),5 (5=80-100%),5 (5=80-100%),5 (5=80-100%)
CC#Cc1cc(C)c(C2C(=O)CC3(CCN(C(=O)C4CCOCC4)CC3)CC2=O)c(C)c1 [Compound A38],5 (5=80-100%),3 (3=40-59%),5 (5=80-100%),5 (5=80-100%),5 (5=80-100%),5 (5=80-100%),5 (5=80-100%),4 (4=60-79%),5 (5=80-100%),5 (5=80-100%)
CC#Cc1cc(C)c(C2C(=O)CC3(CCN(C(=O)c4cncc(OC)n4)CC3)CC2=O)c(C)c1 [Compound A180],5 (5=80-100%),5 (5=80-100%),5 (5=80-100%),5 (5=80-100%),5 (5=80-100%),5 (5=80-100%),5 (5=80-100%),5 (5=80-100%),5 (5=80-100%),5 (5=80-100%)
CC#Cc1cc(C)c(C2C(=O)CC3(CCN(C(=O)C4=COCCC4)CC3)CC2=O)c(C)c1 [Compound A175],5 (5=80-100%),4 (4=60-79%),5 (5=80-100%),5 (5=80-100%),5 (5=80-100%),5 (5=80-100%),5 (5=80-100%),5 (5=80-100%),5 (5=80-100%),5 (5=80-100%)
CC#Cc1cc(C)c(C2=C(OC(=O)OC)CC3(CCN(S(C)(=O)=O)CC3)CC2=O)c(C)c1 [Compound P28],5 (5=80-100%),5 (5=80-100%),5 (5=80-100%),5 (5=80-100%),5 (5=80-100%),5 (5=80-100%),5 (5=80-100%),5 (5=80-100%),5 (5=80-100%),5 (5=80-100%)

# Source: patent US12043599B2, “Herbicidal compounds” (SYNGENTA PARTICIPATIONS AG, priority 2018, dated 2024)
